Measured values published in patent publication US20240025906A1 (NEURON23, INC., priority 2022, published 2024).
Where a name gives a salt, the structure may show the parent alone. Read-outs that look alike come from different tables or passages of the source.

Assays:
[1] = test system: JAK1/TYK2 pSTAT5 (Tyr694/699) in THP-1 cell line; test: IFNa-stimulated JAK1/TYK2 pSTAT5 (Tyr694/699) inhibition cellular assay, AlphaLISA; assay type: cell-based; details: THP-1 cells, AlphaLISA (Assay B)
How it was run: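 An eight-point 6-fold titration of compound (0.04–10000 nM final) is given to THP-1 cells for 1 h before 30 min of IFNa exposure. Phospho-STAT5 is read by AlphaLISA at 615 nm. IC50 values are derived by logistic regression with bottom set to 0 and Hill slope set to −1.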

TYK2 JH2 = molecular target: T1, TYK2 JH2 (Homo sapiens, UniProt P29597); test: TYK2 JH2 binding assay (KINOMEscan KdELECT competitive binding); details: TYK2 JH2 domain
T1 construct: purchased DiscoverX (KINOMEscan KdELECT service); host or cells: E. coli BL21-derived (T7 phage display) or HEK-293
T1 sequence (P29597 589-875 limits assumed): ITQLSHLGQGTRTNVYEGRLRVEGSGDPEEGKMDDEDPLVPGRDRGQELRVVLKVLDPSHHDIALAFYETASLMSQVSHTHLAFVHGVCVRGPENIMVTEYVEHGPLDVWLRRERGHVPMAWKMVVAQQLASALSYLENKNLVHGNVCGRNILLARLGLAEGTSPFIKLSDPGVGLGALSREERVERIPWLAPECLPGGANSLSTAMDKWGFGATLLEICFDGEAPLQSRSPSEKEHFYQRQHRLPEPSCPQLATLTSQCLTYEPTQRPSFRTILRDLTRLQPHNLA
How it was run: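 The assay measures displacement of DNA- or phage-tagged TYK2 pseudokinase domain from an affinity resin; compound binding lowers the amount captured, read by qPCR. Incubation lasts 1 h at room temperature.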

[2] = Homo sapiens, IFNa-stimulated, read-out: Cellular_THP1_IFNa-pSTATS_TYK2
[3] = KINOMEscan KdELECT (Assay A), read-out: Biochemical TYK2_DiscoverX_JH2_BND_Kd
[4] = Homo sapiens, IFNa-stimulated pSTAT5 (Tyr694/699), read-out: Cellular_THP1_IFNa-pSTATS_TYK2
[5] = Homo sapiens, IFNa-stimulated, read-out: Cellular THP1_IFNa-pSTATS_IC50
[6] = KINOMEscan KdELECT (Assay A), read-out: Biochemical TYK2_JH2_Kd
[7] = DiscoverX KINOMEscan KdELECT (Assay A), read-out: Biochemical TYK2_DiscoverX_JH2_BND_Kd

Row | IC50 [1, 2] [nM] | Kd (TYK2 JH2; [3]) [nM] | Kd (TYK2 JH2; [7]) [nM] | SMILES | also measured
1 | ≤ 500 | ≤ 100 | – | CNc1ncc(C#Cc2cccc3c2SCCC3=O)c2cc(NC(=O)C3CC3)ncc12 [Example 975, N-[8-(methylamino)-5-[2-(4-oxothiochroman-8-yl)ethynyl]-2,7-naphthyridin-3-yl]cyclopropanecarboxamide] | –
2 | – | ≤ 100 | – | CNc1ncc(C#Cc2cn(C)c(C)n2)c2cc(NC(=O)C3CC3)ncc12 [Example 1003, N-(5-((1,2-dimethyl-1H-imidazol-4-yl)ethynyl)-8-(methylamino)-2,7-naphthyridin-3-yl)cyclopropanecarboxamide] | IC50 [1, 4]: ≤ 500 nM
3 | – | ≤ 100 | – | CNc1ncc(-c2cn3cc(N4CCO[C@H](C)C4)ccc3n2)c2cc(NC(=O)C3CC3)ncc12 [Example 1051] | IC50 [1, 4]: ≤ 500 nM
4 | – | ≤ 100 | – | [2H]C([2H])(C)Nc1ncc(-c2nc3ccc(N4CCOCC4)cn3n2)c2cc(NC(=O)[C@H]3C[C@H]3C)ncc12 [Example 1095, (1S,2R)—N-(8-((ethyl-1,1-d2)amino)-5-(6-morpholino-[1,2,4]triazolo[1,5-a]pyridine-2-yl)-2,7-naphthyridin-3-yl)-2-methylcyclopropane-1-carboxamide] | IC50 [1, 4]: ≤ 500 nM
5 | ≤ 500 | ≤ 100 | – | [2H]C([2H])([2H])Nc1ncc(C#Cc2cn(C)c(C)n2)c2cc(NC(=O)[C@H]3C[C@H]3C)ncc12 [Example 903, (1S,2R)-N-(5-((1,2-dimethyl-1H-imidazol-4-yl)ethynyl)-8-((methyl-d3)amino)-2,7-naphthyridin-3-yl)-2-methylcyclopropane-1-carboxamide] | –
6 | – | – | – | CNc1ncc(-c2ccc(COC)cc2)c2cc(NC(=O)C3CC3)ncc12 [Example 169, N-(5-(4-(methoxymethyl)phenyl)-8-(methylamino)-2,7-naphthyridin-3-yl)cyclopropanecarboxamide] | IC50 [1, 5]: > 500 nM; Kd (TYK2 JH2; [6]): ≤ 100 nM
7 | – | – | – | CNc1ncc(-c2ccccc2)c2cc(NCC3CC3)ncc12 [Example 93, N^6-(cyclopropylmethyl)-N^1-methyl-4-phenyl-2,7-naphthyridine-1,6-diamine] | IC50 [1, 5]: > 500 nM; Kd (TYK2 JH2; [6]): 1000 to 10000 nM
8 | ≤ 500 | – | ≤ 100 | CCNc1ncc(-c2nc3cc(N4CCO[C@@H](C)C4)ccc3o2)c2cc(NC(=O)C3CC3)ncc12 [Example 366, (S)—N-(8-(ethylamino)-5-(5-(2-methylmorpholino)benzo[d]oxazol-2-yl)-2,7-naphthyridin-3-yl)cyclopropanecarboxamide] | –
9 | ≤ 500 | – | ≤ 100 | CNc1ncc(-c2nc3cc(N4CCOC(C)C4)c(C)cc3o2)c2cc(NC(=O)C3CC3)ncc12 (centres unmarked) [Example 259, N-(5-(6-methyl-5-(2-methylmorpholino)benzo[d]oxazol-2-yl)-8-(methylamino)-2,7-naphthyridin-3-yl)cyclopropanecarboxamide] | –
10 | – | – | ≤ 100 | [2H]C([2H])([2H])Nc1ncc(-c2nc3ccccc3o2)c2cc(NC(=O)C3CC3F)ncc12 (racemic) [Example 434, N-(5-(benzo[d]oxazol-2-yl)-8-((methyl-d3)amino)-2,7-naphthyridin-3-yl)-2-fluorocyclopropane-1-carboxamide] | IC50 ([1]; IFNa-stimulated, read-out: Cellular_THP1_IFNa-pSTATS_TYK2): ≤ 500 nM
11 | ≤ 500 | ≤ 100 | – | CNc1ncc(C#Cc2cccnn2)c2cc(NC(=O)C3CC3)ncc12 [Example 641, N-(8-(methylamino)-5-(pyridazin-3-ylethynyl)-2,7-naphthyridin-3-yl)cyclopropanecarboxamide] | –
12 | ≤ 500 | – | ≤ 100 | CNc1ncc(-c2nc3ccc(N4CCOCC4)cn3n2)c2cc(Nc3ccc(C(C)(C)O)c(F)n3)ncc12 [Example 589, 2-(2-fluoro-6-((8-(methylamino)-5-(6-morpholino-[1,2,4]triazolo[1,5-a]pyridin-2-yl)-2,7-naphthyridin-3-yl)amino)pyridin-3-yl)propan-2-ol] | –
13 | ≤ 500 | – | ≤ 100 | CNc1ncc(-c2nc3ccc(N4CCOCC4)cn3n2)c2cc(NC(=O)C3(F)CC3)ncc12 [Example 527, 1-fluoro-N-(8-(methylamino)-5-(6-morpholino-[1,2,4]triazolo[1,5-a]pyridin-2-yl)-2,7-naphthyridin-3-yl)cyclopropane-1-carboxamide] | –
14 | – | ≤ 100 | – | CNc1ncc(-c2nc3cc(N4C[C@@H](C)O[C@H](C)C4)ccc3o2)c2cc(NC(=O)[C@H]3C[C@H]3C)ncc12 [Example 1070, (1S,2R)-N-(5-(5-((2R,6R)-2,6-dimethylmorpholino)benzo[d]oxazol-2-yl)-8-(methylamino)-2,7-naphthyridin-3-yl)-2-methylcyclopropane-1-carboxamide] | IC50 [1, 4]: ≤ 500 nM
15 | ≤ 500 | ≤ 100 | – | CNc1ncc(C#Cc2ccc(OC)cn2)c2cc(NC(=O)C3(F)CC3)ncc12 [Example 743, 1-fluoro-N-(5-((5-methoxypyridin-2-yl)ethynyl)-8-(methylamino)-2,7-naphthyridin-3-yl)cyclopropane-1-carboxamide] | –
16 | – | ≤ 100 | – | CNc1ncc(-c2nc3cc(N(C)C(C)=O)ccc3o2)c2cc(Nc3cccc(OC)n3)ncc12 [Example 1086, N-[2-[6-[(6-methoxy-2-pyridyl)amino]-1-(methylamino)-2,7-naphthyridin-4-yl]-1,3-benzoxazol-5-yl]-N-methyl-acetamide] | IC50 [1, 4]: ≤ 500 nM
17 | – | – | – | CNc1ncc(-c2cccc(-c3ncn(C)n3)c2)c2cc(NC(=O)C3CC3)ncc12 [Example 53, N-(5-(3-(1-methyl-1H-1,2,4-triazol-3-yl)phenyl)-8-(methylamino)-2,7-naphthyridin-3-yl)cyclopropanecarboxamide] | IC50 [1, 5]: > 500 nM; Kd (TYK2 JH2; [6]): ≤ 100 nM
18 | > 500 | ≤ 100 | – | CNc1ncc(C#Cc2c(Cl)cc(OC)cc2Cl)c2cc(NC(=O)C3CC3)ncc12 [Example 636, N-(5-((2,6-dichloro-4-methoxyphenyl)ethynyl)-8-(methylamino)-2,7-naphthyridin-3-yl)cyclopropanecarboxamide] | –
19 | ≤ 500 | – | ≤ 100 | CNc1ncc(-c2nc3ccc(N4CCOCC4)cn3n2)c2cc(NC(=O)[C@@H]3CC34CC4)ncc12 (single isomer, unassigned) [Example 587, formate] | –
20 | ≤ 500 | – | ≤ 100 | CNc1ncc(-c2nc3cc(OC4CCOCC4)ccc3o2)c2cc(NC(=O)C3CC3)ncc12 [Example 253, N-(8-(methylamino)-5-(5-((tetrahydro-2H-pyran-4-yl)oxy)benzo[d]oxazol-2-yl)-2,7-naphthyridin-3-yl)cyclopropanecarboxamide] | –
21 | – | – | – | CNc1ncc(-c2cn[nH]c2)c2cc(NC(=O)C3CC3)ncc12 [Example 24, N-(8-(methylamino)-5-(1H-pyrazol-4-yl)-2,7-naphthyridin-3-yl)cyclopropanecarboxamide] | IC50 [1, 5]: > 500 nM; Kd (TYK2 JH2; [6]): ≤ 100 nM
22 | – | – | – | CNc1ncc(-c2nc3ccccc3[nH]2)c2cc(NC(=O)C3CC3)ncc12 [Example 139, N-(5-(1H-benzo[d]imidazol-2-yl)-8-(methylamino)-2,7-naphthyridin-3-yl)cyclopropanecarboxamide] | IC50 [1, 5]: > 500 nM; Kd (TYK2 JH2; [6]): ≤ 100 nM
23 | ≤ 500 | – | ≤ 100 | CNc1ncc(-c2nc3ccc(CO)cc3o2)c2cc(NC(=O)C3CC3)ncc12 [Example 254, N-(5-(6-(hydroxymethyl)benzo[d]oxazol-2-yl)-8-(methylamino)-2,7-naphthyridin-3-yl)cyclopropanecarboxamide] | –
24 | ≤ 500 | – | ≤ 100 | CNc1ncc(-c2nc3cc(N4CCOCC4)ccc3o2)c2cc(NC(=O)[C@H]3C[C@H]3C)ncc12 [Example 423, (1S,2R)-2-methyl-N-(8-(methylamino)-5-(5-morpholinobenzo[d]oxazol-2-yl)-2,7-naphthyridin-3-yl)cyclopropane-1-carboxamide] | –
25 | > 500 | ≤ 100 | – | CNc1nc(C)c(C#Cc2ccc(OC)cc2)c2cc(NC(=O)C3CC3)ncc12 [Example 781, N-(5-((4-methoxyphenyl)ethynyl)-6-methyl-8-(methylamino)-2,7-naphthyridin-3-yl)cyclopropanecarboxamide] | –
26 | – | ≤ 100 | – | CNc1ncc(-c2nc3cc(N4C[C@H](C)O[C@@H](C)C4)ccc3o2)c2cc(NC(=O)[C@H]3C[C@H]3C)ncc12 [Example 1068, (1S,2R)-N-[5-[5-[(2S,6S)-2,6-dimethylmorpholin-4-yl]-1,3-benzoxazol-2-yl]-8-(methylamino)-2,7-naphthyridin-3-yl]-2-methyl-cyclopropanecarboxamide] | IC50 [1, 4]: ≤ 500 nM
27 | – | – | – | CNc1ncc(-c2ccnn2Cc2ccccc2)c2cc(NC(=O)C3CC3)ncc12 [Example 20, N-(5-(1-benzyl-1H-pyrazol-5-yl)-8-(methylamino)-2,7-naphthyridin-3-yl)cyclopropanecarboxamide] | IC50 [1, 5]: > 500 nM; Kd (TYK2 JH2; [6]): ≤ 100 nM
28 | ≤ 500 | – | ≤ 100 | CNc1ncc(-c2nc3cc(NCCOC)ccc3o2)c2cc(NC(=O)C3CC3)ncc12 [Example 294, N-(5-(5-((2-methoxyethyl)amino)benzo[d]oxazol-2-yl)-8-(methylamino)-2,7-naphthyridin-3-yl)cyclopropanecarboxamide] | –
